The values below are quoted from earlier work in patent US9445622B2, “Compositions and methods for improving creatine solubility and stability” (Glanbia Nutritionals (Ireland) Ltd., priority 2009, dated 2016).

The conditions of the series: solid form, over years, even at elevated temperatures.

Each structure is given as a SMILES string.

With `CN(CC(=O)O)C(=N)N.O` [creatine monohydrate powder, creatine monohydrate], the “stability of solid powder” value is “no signs of degradation”.
